One block for each compound: values may come before it.
How the values were obtained:
[1] = Crystal growth of C by evaporation of aqueous solution, no seed crystals, with polypeptide additives; assay type: physicochemical
Experimental: (§1) We obtained the crystals of m^5U, C, and I, respectively, by evaporation of their aqueous solutions at room temperature. m^5U was known to be crystallized from aqueous ethanol solutions. […] On day 1, each sample vial was first added 600 μL of 400 mM m^5U solution. Then 20 μL of water or polypeptide solutions at certain concentrations were added into each vial. The final m^5U concentration was 387 mM in each vial. The additive/m^5U molar ratios (×10^−5) were varied from 0, 0.04, 0.4, 1.0, 1.2, 3.0, 4.0, 7.8, and 9.0. The vials were gently swirled after the addition and were left open in the air at the room temperature. At least three observations were recorded per day (every 8 hours) until the solutions in all the vials were dry. The experiments were repeated five times (Table 1).
(§2) In previous reports, crystals of C were prepared by evaporating of its aqueous ethanol solutions. Here we obtained C crystals by evaporation of its aqueous solution. […] By slowly evaporating its aqueous solution at 20° C., the pure α-form I crystals were obtained. The experimental procedures for C and I were similar to those described above for m^5U, while the concentrations of C and I solutions were 252 mM and 92 mM, respectively, in each sample vial on day 1 and the additive/C molar ratios (×10^−5) were varied from 0, 0.04, 0.4, 1.0, 1.2, 3.0, 4.0, 7.9, and 10.0 and the additive/I molar ratios (×10^−5) were varied from 0, 0.05, 0.5, 1.1, 2.2, 4.4, 8.1, 10.8, and 21.7. Photos of the vials were taken with a Canon EOS 30D camera during the crystallization process and when the process finished. Optical micrographs were taken under Nikon SMZ800 microscope with a Nikon Coolpix 5400 when the crystallization completed. […]
(§3) Powder X-ray diffraction (PXRD) data were collected at room temperature on a Rigaku Mini Flex II desktop diffractometer using Cu Kα radiation (30 kV, 15 mA) with a 2θ range of 5°-50°, a step size of 0.010°, and a step time of 2 s. […] The same amount of the resulting powders was then mounted and analyzed on a front loading sample holder.

[2] = Crystal growth of I by evaporation of aqueous solution, no seed crystals, with polypeptide additives; assay type: physicochemical
Experimental: as §1, §2, §3

[3] = copper sulfate pentahydrate aqueous solution, no additive
Experimental: To further test the effect of AFP on different types of compounds, we tested copper sulfate pentahydrate. The crystal grows from copper sulfate pentahydrate aqueous solutions at room temperature. Seventy milligrams of copper sulfate pentahydrate were dissolved in one milliliter of deionized, milli-Q water. The solution was filtered and left in the air for evaporation. In the presence AFPs, the conditions were all the same except DAFP-1 was added to the solution at the molar ratio of 10^−7 to copper sulfate.

[4] = Stability of m^5U crystal forms left in air at room temperature; assay type: physicochemical
Source text: The only previously known crystalline form of m^5U is its hemihydrate crystal, designated form I, which was crystallized exclusively by evaporation from the supersaturated aqueous solutions. By using DAFP-1 as an additive, remarkably, we were able to control the crystallization of m^5U and discover a new, less thermodynamically and kinetically preferred form, m^5U dihydrate crystal, designated form II. Forms I and II crystals are readily distinguished from each other by their morphology and stability. Form I crystals are needle-like in appearance (FIG. 16(a)) and there was no change (in the appearance, single crystal X-ray diffraction pattern, or DSC profile) of the crystals after being left in air at room temperature for more than 24 months. Form II crystals are block-shaped (FIG. 16(b)) and became white opaque powders/blocks in 2 months. The resulting solids were not suitable for single-crystal X-ray diffraction.

[5] = DSC thermodynamic stability analysis of m^5U forms; assay type: physicochemical
Experimental: Thermodynamic Stability Analysis. Both forms of m^5U were analyzed by DSC (FIG. 20). […] The first endotherm associated with water loss is at 139.07° C., whereas the second endotherm ascribed to the melting is at 185.65° C. […] Form II starts losing water and then melts at relatively lower temperatures than those of form I. The enthalpy profiles for both forms are compared in FIG. 21.
All experiments were performed with a DSC 1 (Mettler Toledo, Ohio). An indium standard (Mettler Toledo, Ohio) was used to calibrate the instrument. Samples weighed 3-4 mg and were hermetically encapsulated in standard aluminum sample pans with pierced lids to release any pressure build-up during the experiments. The samples were heated from 25 to 200° C. at a rate of 5° C./min.

[6] = Crystallization and crystallization kinetics of m^5U form I and form II from supersaturated solution; assay type: physicochemical; conditions: for Day the crystallization completes / Day the crystallization starts: 595 mM m^5U, form I in absence of DAFP-1, form II in presence of DAFP-1 (additive/m^5U 5×10^−6); for Average crystal growth rate: estimated from mass increase of crystals, form I without, form II with DAFP-1; for Crystal morphology of the form: optical micrographs
Experimental: Supersaturated m^5U aqueous solutions (0.6 M) were made at 30° C. and filtered as soon as possible. Crystals were not grown after the temperature dropped to room temperature for a few days. On day 1, to each sample vial was added 600 μL of 0.6 M m^5U solution, and then 5 μL of water or DAFP solution were added into the vial. The vials were gently swirled after the additions. The resulting m^5U concentration was 595 mM in each vial and additive/m^5U molar ratios (×10^−6) were either 0 or 5. The sample vials were left open in the air at room temperature and three observations at least were recorded per day (every 8 hours) until the solutions in all the vials were dry. The above experiments were repeated five times. Optical micrographs were taken under Nikon SMZ800 microscope with a Nikon Coolpix 5400 when the crystallization completed. Under the above conditions, only form I crystalline m^5U was able to grow in the absence of DAFP-1; however, in the presence of DAFP-1, form II crystalline m^5U was grown exclusively. The kinetics of crystallization of m^5U form I and form II, respectively, was estimated based on the rate of the weight of the occurring crystals and the initial weight of m^5U in the specific vial. All the liquid in the vial was collected gently and the weight of the vial or the vial with crystals was measured. After the measurement, the collected liquid was put back into the vial and the crystallization continued. The weights were measured on an Ohaus Discovery semi-micro analytical balance at 9 am every day until the crystallization finished. The experiments were repeated on three vials and the average values were reported.

[7] = Crystal growth of m^5U by evaporation of aqueous solution, no seed crystals, with polypeptide additives; assay type: physicochemical
Experimental: as §1
All the resulting solids were sent to X-ray crystallography laboratory at the Beckman Institute of California Institute of Technology for analysis. The qualities of the solids for single crystal X-ray diffraction were determined (Table 1). […] The resolution of the data was improved compared with that of previously reported data of m^5U. The crystallographic data of m^5U have been deposited in the Cambridge Database (CCDC) and the CCDC deposit number is 835399.
Powder X-ray diffraction (PXRD) data were collected at room temperature on a Rigaku Mini Flex II desktop diffractometer using Cu Kα radiation (30 kV, 15 mA) with a 2θ range of 5°-50°, a step size of 0.010°, and a step time of 2 s. Samples were lightly ground by hand using a mortar and pestle. The same amount of the resulting powders was then mounted and analyzed on a front loading sample holder.
Different amounts of DAFP-1 were added directly to m^5U solution to determine the critical ratio of DAFP-1/m^5U.

[8] = Crystallization of trehalose dihydrate by diffusing ethanol, with DAFP-1; assay type: physicochemical; conditions: without additive
Source text: Similarly, we crystallized trehalose dihydrate crystals by diffusing ethanol into the aqueous ethanol solution of trehalose directly. The protein:trehalose molar ratio (×10^−5) was 9.0 in FIG. 24(b) The crystals formed in the presence of DAFP-1 show a dramatic decrease in size as compared to the crystals obtained without additive.

[9] = optical micrographs, no seed crystals, alone or in the presence of the named additive

- Crystal quality (suitableness of resulting solids for single crystal x-ray diffraction) ([1]; 252 mM C, polypeptide 0 μM): Yes
- Induction time (day of first appearance of solid) ([1]; 252 mM C, polypeptide 0 μM, no seed crystals): 13 days
- Morphology of final achieved C solids [1, 9]: needle-like
SMILES: Nc1ccn([C@@H]2O[C@H](CO)[C@@H](O)[C@H]2O)c(=O)n1 [C, cytidine]

- Crystal quality (suitableness of resulting solids for single crystal x-ray diffraction) ([2]; 92 mM I, polypeptide 0 μM): Yes
- Induction time (day of first appearance of solid) ([2]; 92 mM I, polypeptide 0 μM, no seed crystals): 5 days
- Morphology of final achieved I solids [2, 9]: hair-like
SMILES: O=c1[nH]cnc2c1ncn2[C@@H]1O[C@H](CO)[C@@H](O)[C@H]1O [I, inosine]

SMILES: O.O.O.O.O.O=S(=O)([O-])[O-].[Cu+2] [copper sulfate pentahydrate]
- Appearance of the crystal (time) [3]: 7 days

- Time crystals were stable in air ([4]; in air): at least 2 years
- Time without change (appearance, single crystal X-ray diffraction pattern, DSC profile) of the crystals ([4]; left in air at room temperature): more than 24 months
- Relative thermodynamic stability of the forms ([5]; DSC enthalpy profiles): more thermodynamically stable
- DSC endotherm associated with water loss ([5]; heated 25 to 200° C. at 5° C./min): 139.07 °C
- Day the crystallization completes [6]: 9 days
- Day the crystallization starts [6]: 3 days
- Average crystal growth rate [6]: 13.3 % per day
- Crystal morphology of the form [6]: needle-like
SMILES: Cc1cn([C@@H]2O[C@H](CO)[C@@H](O)[C@H]2O)c(=O)[nH]c1=O [form I, 5-methyluridine]

- Time until crystals became white opaque powders/blocks ([4]; in air at room temperature): 2 months
- Day the crystallization completes [6]: 15 days
- Day the crystallization starts [6]: 6 days
- Average crystal growth rate [6]: 10.5 % per day
- Crystal morphology of the form [6]: block-shaped
SMILES: Cc1cn([C@@H]2O[C@H](CO)[C@@H](O)[C@H]2O)c(=O)[nH]c1=O [form II, 5-methyluridine]

- Crystal quality (suitableness of resulting solids for single crystal x-ray diffraction) ([7]; 387 mM m^5U, polypeptide 0 μM): Yes
- Induction time (day of first appearance of solid) ([7]; 387 mM m^5U, polypeptide 0 μM, no seed crystals): 6 days
- Morphology of finally achieved m^5U solids [7, 9]: Needle-like orthorhombic
SMILES: Cc1cn([C@@H]2O[C@H](CO)[C@@H](O)[C@H]2O)c(=O)[nH]c1=O [m^5U, 5-methyluridine]

- Size of trehalose dihydrate crystals [8]: 1-1.5 mm
SMILES: OC[C@H]1O[C@H](O[C@H]2O[C@H](CO)[C@@H](O)[C@H](O)[C@H]2O)[C@H](O)[C@@H](O)[C@@H]1O [trehalose dihydrate]

Source: US9394327B1, “Nucleoside crystals, crystal nucleation and growth control with antifreeze proteins” (The Trustees of California State University, priority 2013, dated 2016)
